For orientation: Ki means the dissociation constant of the complex between target and ligand, obtained from inhibition or displacement.

Molecules are shown by their SMILES. Read-outs that look alike come from different tables or passages of the source.

Test [1] deals with T1, cloned human m2 muscarinic receptor (Homo sapiens, UniProt P08172).
T1 sequence (P08172 1-466): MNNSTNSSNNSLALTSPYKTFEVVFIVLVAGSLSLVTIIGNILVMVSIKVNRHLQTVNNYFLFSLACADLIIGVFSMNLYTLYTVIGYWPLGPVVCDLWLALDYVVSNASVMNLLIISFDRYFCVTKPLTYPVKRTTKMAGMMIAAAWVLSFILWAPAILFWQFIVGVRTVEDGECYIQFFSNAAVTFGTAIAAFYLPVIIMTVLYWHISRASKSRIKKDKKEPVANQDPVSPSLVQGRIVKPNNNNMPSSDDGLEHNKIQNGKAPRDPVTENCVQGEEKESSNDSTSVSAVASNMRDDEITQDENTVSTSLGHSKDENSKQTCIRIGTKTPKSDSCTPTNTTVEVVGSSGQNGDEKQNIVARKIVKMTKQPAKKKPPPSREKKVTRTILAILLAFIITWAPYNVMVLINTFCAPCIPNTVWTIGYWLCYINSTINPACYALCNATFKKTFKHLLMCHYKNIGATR
The test can be described thus: Muscarinic binding activity, 3H-QNB, m2. Here is the method:
(§1) The compound of interest is tested for its ability to inhibit binding to the cloned human m1, m2, m3, and m4 muscarinic receptor subtypes. The sources of receptors in these studies were membranes from stably transfected CHO cell lines which were expressing each of the receptor subtypes. Following growth, the cells were pelleted and subsequently homogenized using a Polytron in 50 volumes cold 10 mM Na/K phosphate buffer, pH 7.4 (Buffer B). The homgenates were centrifuged at 40,000×g for 20 minutes at 4° C. The resulting supernatants were discarded and the pellets were resuspended in Buffer B at a final concentration of 20 mg wet tissue/ml. These membranes were stored at −80° C. until utilized in the binding assays described below.
(§2) Binding to the cloned human muscarinic receptors was performed using ^3H-quinuclidinyl benzilate (QNB) (Watson et al., 1986). Briefly, membranes (approximately 8, 20, and 14 μg of protein assay for the m1, m2, and m4 containing membranes, respectively) were incubated with ^3H-QNB (final concentration of 100-200 pM) and increasing concentrations of unlabeled drug in a final volume of 2 ml at 25° C. for 90 minutes. Non-specific binding was assayed in the presence of 1 μM atropine. The incubations were terminated by vacuum filtration over GF/B glass fiber filters using a Skatron filtration apparatus and the filters were washed with cold 10 mM Na/K phosphate butter, pH 7.4. Scintillation cocktail was added to the filters and the vials were incubated overnight. The bound radioligand was quantified in a liquid scintillation counter (50% efficiency). The resulting data were analyzed for IC50 values (i.e. the concentration of compound required to inhibit binding by 50%) using the EBDA computer program (McPherson, 1985). Affinity values (Ki) were then determined using the following formula (Cheng and Prusoff, 1973); [formula]
(§3) To determine the degree of selectivity of a compound for binding the m2 receptor, the Ki value for m1 receptors was divided by the Ki value for m2 receptors. A higher ratio indicates a greater selectivity for binding the m2 muscarinic receptor.

Test [2] addresses T2, cloned human m1 muscarinic receptor (Homo sapiens, UniProt P11229).
T2 sequence (P11229 1-460): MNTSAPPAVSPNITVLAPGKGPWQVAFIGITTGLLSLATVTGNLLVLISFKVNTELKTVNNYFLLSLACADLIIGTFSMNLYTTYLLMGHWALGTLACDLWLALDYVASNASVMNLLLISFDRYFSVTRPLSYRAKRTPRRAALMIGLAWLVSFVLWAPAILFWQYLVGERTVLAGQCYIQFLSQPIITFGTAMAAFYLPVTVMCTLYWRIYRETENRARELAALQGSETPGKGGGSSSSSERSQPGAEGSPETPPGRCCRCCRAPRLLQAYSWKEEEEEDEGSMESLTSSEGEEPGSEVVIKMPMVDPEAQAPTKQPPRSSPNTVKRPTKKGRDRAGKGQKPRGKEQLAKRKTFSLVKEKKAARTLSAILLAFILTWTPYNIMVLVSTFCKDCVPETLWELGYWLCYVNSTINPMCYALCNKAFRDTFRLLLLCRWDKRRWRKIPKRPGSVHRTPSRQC
The test can be described thus: Muscarinic binding activity, 3H-QNB, m1. On the procedure: as §1, §2, §3

Test [3] has as its target T3, cloned human m4 muscarinic receptor (Homo sapiens, UniProt P08173).
T3 sequence (P08173 1-479): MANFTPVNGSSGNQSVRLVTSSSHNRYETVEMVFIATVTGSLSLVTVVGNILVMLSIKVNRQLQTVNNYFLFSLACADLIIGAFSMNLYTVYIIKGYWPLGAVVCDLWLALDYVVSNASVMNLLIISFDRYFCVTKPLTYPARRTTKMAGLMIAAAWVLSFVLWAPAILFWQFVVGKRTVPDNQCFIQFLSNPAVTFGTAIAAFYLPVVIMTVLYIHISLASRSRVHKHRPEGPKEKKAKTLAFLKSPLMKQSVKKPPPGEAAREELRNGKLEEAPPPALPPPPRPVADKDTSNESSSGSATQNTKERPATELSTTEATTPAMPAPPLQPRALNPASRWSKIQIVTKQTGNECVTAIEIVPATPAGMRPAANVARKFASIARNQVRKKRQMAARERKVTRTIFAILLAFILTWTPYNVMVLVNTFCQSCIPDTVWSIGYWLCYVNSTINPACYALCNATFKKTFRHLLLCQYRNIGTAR
The test can be described thus: Muscarinic binding activity, 3H-QNB, m4. Here is the method: as §1, §2

The mark [4] stands for this setting: range given for the named group of compounds, read-out: Ki, nM, m2.
Where [5] appears, read: range given for the named group of compounds, read-out: Ki, nM, m1.
The mark [6] stands for this setting: range given for the named group of compounds, read-out: Ki, nM, m4.

Consider `c1cnc(Oc2ccc(C(C3CCCCC3)N3CCN(C4CCCCC4)CC3)cc2)nc1` (single isomer, unassigned) [227(−)], for which the Ki in test [1] (setting [4]) was 0.05 to 16.6 nM; in test [2] (setting [5]), 2.1 to 224 nM; in test [3] (setting [6]) it was 0.33 to 36 nM.

For the compound `C=C(c1ccc([S+]([O-])c2ccc(OC)cc2)cc1)C1CCN(C2CCCCC2)CC1` (single isomer, unassigned) [Compound 300], the Ki in test [1] (setting [4]) was 0.05 to 16.6 nM; in test [2] (setting [5]), 2.1 to 224 nM; in test [3] (setting [6]), 0.33 to 36 nM.

On to `COC(=O)C(c1ccc(S(=O)(=O)c2ccc(OC)cc2)cc1)N1CCN(C2CCCCC2)CC1` (stereo not shown) [Compound 214], for which the Ki in test [1] (setting [4]) lay within 0.05 to 16.6 nM; in test [2] (setting [5]), 2.1 to 224 nM; in test [3] (setting [6]), 0.33 to 36 nM.

In the case of `CC(C)C(c1ccc(Oc2ncccn2)cc1)N1CCN(C2CCCCC2)CC1` (stereo not shown) [Compound 232], the Ki in test [1] lay within 0.05 to 16.6 nM; in test [2] it was 2.1 to 224 nM; in test [3], 0.33 to 36 nM.

With `CC1CN(C2CCCCC2)CCN1C(C)c1ccc(Oc2ncccn2)cc1` (stereo not shown) [Compound 269], the results for the Ki in test [1] (setting [4]), in test [2] (setting [5]) and in test [3] (setting [6]) were 0.05 to 16.6 nM, 2.1 to 224 nM and 0.33 to 36 nM, respectively.

On to `COc1ccc([S+]([O-])c2ccc(C(C)(C#N)N3CCN(C4CCCCC4)CC3)cc2)cc1` (stereo not shown) [Compound 289], for which the inhibitory constant (Ki) is 0.05 to 16.6 nM in test [1] (setting [4]), 2.1 to 224 nM in test [2] (setting [5]) and 0.33 to 36 nM in test [3] (setting [6]).

As for `COC(=O)C(C)(c1ccc([S+]([O-])c2ccc(OC)cc2)cc1)N1CCN(C2CCCCC2)CC1` (stereo not shown) [Compound 296], the Ki in test [1] (setting [4]) was in the range of 0.05 to 16.6 nM; in test [2] (setting [5]), 2.1 to 224 nM; in test [3] (setting [6]) it was 0.33 to 36 nM.

`C=C(c1ccc(Sc2ccc(OC)cc2)cc1)C1CCN(C2CCCCC2)CC1` [Compound 302]: the Ki was in the range of 0.05 to 16.6 nM in test [1] (setting [4]), 2.1 to 224 nM in test [2] (setting [5]) and 0.33 to 36 nM in test [3] (setting [6]).

For the compound `C=C(c1ccc([S+]([O-])c2ccc(OC)cc2)cc1)C1CCN(C2CCCCC2)CC1` (stereo not shown) [Compound 304], the Ki was 0.05 to 16.6 nM in test [1] (setting [4]), 2.1 to 224 nM in test [2] (setting [5]) and 0.33 to 36 nM in test [3] (setting [6]).

With `C=C(c1ccc(S(=O)(=O)c2ccc(OC)cc2)cc1)C1CCN(C2CCN(C(=O)OCC)CC2)CC1` [Compound 760], in test [1] (setting [4]), the Ki fell in the range of 0.03 to 0.48 nM.
